Results from US12553882B2, “Use of PAK4 and CRTC1 for treatment or diagnosis of brain degenerative disease” (CHUNGBUK NATIONAL UNIVERSITY INDUSTRY-ACADEMIC COOPERATION …, priority 2017, dated 2026).

How the values were obtained:
rat CRTC1 = assay: Knock-down of CRTC1 by lentiviral shRNA, 6-OHDA rat model; assay type: in vivo; details: lentiviral rat CRTC1 hCMV-TurboGFP shRNA
rat PAK4 = assay: Knock-down of PAK4 by lentiviral shRNA; assay type: in vivo; details: lentiviral rat PAK4 hCMV-TurboGFP shRNA
Text: Lentiviral rat PAK4 hCMV-TurboGFP shRNAs were purchased from Dharmacon and Open Biosystems. […] In this case, lentiviral shRNA control particles (#S-005000-01) were used as a control.
Protein extracts were obtained by conventional protein extraction methods, and immunoblots were visualized using HRP-conjugated secondary antibodies to IgG and chemiluminescent substrate (SuperSignal Ultra; Pierce). For quantitative analysis of protein levels, each band density of the immunoblots was quantitatively analyzed using the National Institutes of Health ImageJ software (National institutes of Health).
As a method for checking the action of PAK4 in Parkinson's disease, the present inventors injected a lent viral green fluorescent protein (GFP) small hairpin control (shCtrl) or lentiviral-GFP-shPAK4 construct into the right striatum of the rat brain to analyze the role of PAK4 in Parkinson's disease.

TH-positive DA neurons = assay: PF-3758309 stereotaxic injection into the SN, analysis of TH-positive neurons and fibers; assay type: in vivo, rat; details: PF-3758309 injected into the SN (substantia nigra)
Experimental: Mice were anesthetized with chloral hydrate (360 mg/kg, intraperitoneal [i.p.] injection) and then placed in a stereotaxic instrument (Kopf Instruments, Tujunga, CA, USA). The injection site coordinates in the right SN were 5.3 mm AP, 2.0 mm ML and 7.6 mm DV, from the bregma. Then, PF-3758309 (0.5 μg) was injected using a Hamilton syringe needle (33-gauge needle). In this case, the flow rate of the injection solution (2 ul) was allowed to be at 0.25 ul/min. After the injection, the syringe needle was maintained as it is for 5 more minutes to suppress the reflux of the solution. […]
Human brain tissue slices embedded with paraffin were deparaffinized with xylene. […] Samples were reacted with Alexa 488- or Alexa 594-conjugated secondary antibodies for fluorescence microscopic analysis. […] For Nissl-staining, SN tissue was fixed on a gelatin-coated slide and dried at room temperature for 1 hour, stained with 0.5% cresyl violet, dehydrated, covered with a cuff slip and analyzed using a bright field microscopy (Nikon).
The unbiased stereological analysis of the total number of TH+ neurons was performed using an optical fractionator method and Stereo Investigator software (MBF Bioscience, Williston, VT). The method is an assay which is not influenced by reference volume (SNpc) or size of counted elements (neurons). The total number of neurons was calculated by Optical Fractionator Equation. […]

Compound	knock-down of the expression of CRTC1 (rat CRTC1)	knock-down of the expression of PAK4 (rat PAK4)	also measured
SH-111776-01: lentiviral rat CRTC1 shRNA, CACGATATACTCTGTCCAC	effectively knocked down		
SH-082018-01: lentiviral rat PAK4 shRNA, TTACGCAAGTCCATCTTCT, Dharmacon and Open Biosystems		effectively knocked down	
SH-111776-02: lentiviral rat CRTC1 shRNA, TCGCTAAATTTCCGCGGAT	effectively knocked down		
Cc1nc(Nc2[nH]nc3c2CN(C(=O)N[C@H](CN(C)C)c2ccccc2)C3(C)C)c2sccc2n1 [PF-3758309]			TH-positive DA neurons (TH-positive DA neurons): decreased
SH-082018-02: lentiviral rat PAK4 shRNA, TGATCGAAGCCTGTGTGTA, Dharmacon and Open Biosystems		effectively knocked down	
